{
  "source": "patent US8293755B2",
  "about": "“Treatment of statin side effects using uridine derivatives” (Magral Pty Ltd., priority 2001, dated 2012)",
  "type_in_all_cases": "in vivo, human",
  "key": {"[1]": {"system": "statin induced muscle pain", "test": "Pilot clinical study: McGill Pain Questionnaire scores (PRI, PPI) in statin patients given magnesium orotate", "set-up": "key to PRI—Pain Rating Index: McGill PRI; higher scores = more pain", "conditions": "for PPI—Present Pain Intensity: score 0 to 5; for PPI—Present Pain Intensity / PRI—Pain Rating Index: 1600 mg/day magnesium orotate", "description": "(§1) Table 1 outlines data for seventeen patients (numbered #i-#xvii) undergoing statin therapy for treatment of hypercholesterolemia and who had reported suffering from varying levels of muscular pain and fatigue. This study is ongoing but the results below follow the study in relation to these patients for varying periods, from day 0 (T0d) up to a maximum of 56 days (T56d).\n(§2) The design of the clinical trial involves a blood sample being taken from the patients prior to commencing medication administration and then on four further occasions during the 13 week trial, at around days 13-16, days 26-30, days 35-60 and finally at days 80-90. Patients were also required to submit answers to a questionnaire on approximately a weekly basis to enable patients to be scored for pain using the McGill Pain Questionnaire (Melzack, R., 1975 “The McGill Pain Questionnaire: Major Properties and Scoring Methods”. Pain 1:277-299, the disclosure of which is included herein in its entirety by way of reference) scales for Pain Rating Index (PRI) and Present Pain Intensity (PPI). In the PRI index, which comprises two scores, higher scores indicate increasing levels of pain. In the PPI index present pain is given a score of 0 to 5, where 0 represents no pain and 5 represents excruciating pain. Patients were also scored prior to commencement of the trial medication for fatigue using the Fatigue Impact Scale (Fisk, J. D. et al, 1994, “Measuring the functional impact of fatigue: Initial Validation of the Fatigue Impact Scale”, Clinical Infectious Disease, 18 (Suppl 1):S79-83, the disclosure of which is included herein in its entirety by way of reference). On the first week at the clinic, prior to commencement of the trial medication, details of the patients' statin medication were recorded and daily doses noted.\n(§3) After the pre-trial medication blood samples and questionnaires were taken (T0d) patients commenced taking daily doses of 1600 mg of magnesium orotate, administered as 2×400 mg tablets, morning and evening.\n(§4) A preliminary statistical analysis of the results of the PRI, PPI and FIS tests for the patients on the trial as a group are presented in Table 3, below."}, "statin induced fatigue": {"system": "statin induced fatigue", "test": "Pilot clinical study: Fatigue Impact Scale (FIS) in statin patients given magnesium orotate", "set-up": "FIS—Fatigue Impact Scale: scale not given here", "conditions": "for FIS—Fatigue Impact Scale: 1600 mg/day magnesium orotate", "description": "as §1, §2, §3, §4"}, "[2]": {"test": "Pilot clinical study: monitoring of blood serum components", "description": "as §2, §3\nBlood samples were taken prior to commencement of trial medication (T0d) and after approximately 14 (T14d), 28 (T28d), 42 (T42d) and 56 (T56d) days to determine individual to baseline levels of uridine (μg/ml) arising from magnesium orotate (MgOr) administration, to thereby monitor patient compliance. Blood samples taken were also used to determine creatine kinase concentration (CK) (units/L), gamma glutaryl transferase (GGT) concentration, aspartate amino transferase (AST) concentration and alanine aminotransferase concentration (ALT) (units/L), as well as serum lipid levels including total cholesterol concentration, high density lipoprotein (HDL-CHOL) concentration, low density lipoprotein (LDL-CHOL) concentration, tryglyceride (TRIG) concentration and levels of other serum components routinely tested for including magnesium ion concentration."}, "[3]": {"conditions": "most patients undergoing the magnesium orotate therapy"}, "[4]": {"conditions": "patients within the normal ranges at commencement of the trial"}},
  "note": "Values joined by “and” are separate entries in the source; they are usually repeats but may differ in a detail not shown here. Equal values may be shown once.",
  "data": [
    {"substance": "magnesium orotate", "values": [
      {"measurement": "PPI—Present Pain Intensity", "setting": "[1]; T7d, baseline in T0d", "value": "2 (4×) and 1 (9×) and 0 (3×)"},
      {"measurement": "PRI—Pain Rating Index", "setting": "[1]; T14d", "value": "9 (2×) and 8 and 28 and 16 and 23 and 42 and 4 and 7 and 15 and 37 and 2 and 3 and 0 and 6"},
      {"measurement": "PPI—Present Pain Intensity", "setting": "[1]; T14d", "value": "2 (6×) and 1 (9×)"},
      {"measurement": "PRI—Pain Rating Index", "setting": "[1]; T21d", "value": "9 (2×) and 8 (2×) and 24 and 13 and 15 and 42 and 2 and 35 and 0 and 3 and 12"},
      {"measurement": "PPI—Present Pain Intensity", "setting": "[1]; T21d", "value": "2 (5×) and 1 (7×) and 0"},
      {"measurement": "PRI—Pain Rating Index", "setting": "[1]; T28d", "value": "2 (3×) and 3 (2×) and 11 and 4 and 0"},
      {"measurement": "PPI—Present Pain Intensity", "setting": "[1]; T28d", "value": "1 (4×) and 0 (3×) and 2"},
      {"measurement": "PRI—Pain Rating Index", "setting": "[1]; T35d", "value": 0},
      {"measurement": "PPI—Present Pain Intensity", "setting": "[1]; T35d", "value": 0},
      {"measurement": "PRI—Pain Rating Index", "setting": "[1]; T42d", "value": 0},
      {"measurement": "PPI—Present Pain Intensity", "setting": "[1]; T42d", "value": 0},
      {"measurement": "PRI—Pain Rating Index", "setting": "[1]; T49d", "value": 0},
      {"measurement": "PPI—Present Pain Intensity", "setting": "[1]; T49d", "value": 0},
      {"measurement": "PRI—Pain Rating Index", "setting": "[1]; T56d", "value": 0},
      {"measurement": "PPI—Present Pain Intensity", "setting": "[1]; T56d", "value": 0},
      {"measurement": "PRI and PPI pain scores", "setting": "[1]; [3]", "value": "significant improvements"},
      {"measurement": "FIS—Fatigue Impact Scale", "setting": "statin induced fatigue; T7d, baseline in T0d", "value": "0 and 19 and 9 and 23 and 88 and 7 and 24 and 17 and 101 and 5 and 47 and 77 and 44 and 40 and 6 and 21"},
      {"measurement": "FIS—Fatigue Impact Scale", "setting": "statin induced fatigue; T14d", "value": "0 and 38 and 25 and 86 (2×) and 9 (3×) and 32 and 49 and 3 and 48 and 31 and 11 and 21"},
      {"measurement": "FIS—Fatigue Impact Scale", "setting": "statin induced fatigue; T21d", "value": "0 and 19 and 18 and 39 and 92 and 4 and 30 and 8 and 91 and 10 and 67 and 21 and 3"},
      {"measurement": "FIS—Fatigue Impact Scale", "setting": "statin induced fatigue; T28d", "value": "0 and 22 and 51 and 1 and 7 and 77 and 9 and 50"},
      {"measurement": "FIS—Fatigue Impact Scale", "setting": "statin induced fatigue; T35d", "value": "0 and 22"},
      {"measurement": "FIS—Fatigue Impact Scale", "setting": "statin induced fatigue; T42d", "value": "0 and 13"},
      {"measurement": "FIS—Fatigue Impact Scale", "setting": "statin induced fatigue; T49d", "value": 0},
      {"measurement": "FIS—Fatigue Impact Scale", "setting": "statin induced fatigue; T56d", "value": 0},
      {"measurement": "FIS fatigue score", "setting": "statin induced fatigue; [3]", "value": "significant improvements"},
      {"measurement": "serum uridine concentration", "setting": "[2]; all patients on the trial, data not presented", "value": "increase"},
      {"measurement": "GGT serum concentration", "setting": "[2]; day 43, only patient significantly outside normal range at commencement, dropped from 96 U/L at day 0", "value": 83, "unit": "U/L"},
      {"measurement": "AST serum concentration", "setting": "[2]; day 43, same patient, dropped from 56 U/L at commencement", "value": 42, "unit": "U/L"},
      {"measurement": "ALT serum concentration", "setting": "[2]; day 43, same patient, dropped from 105 U/L at commencement", "value": 74, "unit": "U/L"},
      {"measurement": "alanine amino transferase (ALT) serum concentration", "setting": "[2]; [4]", "value": "no significant impact"},
      {"measurement": "aspartate amino transferase (AST) serum concentration", "setting": "[2]; [4]", "value": "no significant impact"},
      {"measurement": "gamma glutaryl transferase (GGT) serum concentration", "setting": "[2]; [4]", "value": "no significant impact"},
      {"measurement": "serum creatine kinase concentration (CK)", "setting": "[2]; [4]", "value": "no significant impact"}
    ]}
  ]
}
